Reference: ChEMBL document CHEMBL3046451, “Design, synthesis, characterization, and in vitro antimicrobial action of novel trisubstituted s-triazines” (2012)
Converted amounts (≈) assume the structure as drawn.

Experiments:
Format in all cases: functional
[1] = test system: Staphylococcus aureus; experiment: Antibacterial activity against Staphylococcus aureus MTCC 96 after 24 hr by paper disk diffusion method
[2] = test system: Proteus vulgaris; experiment: Antibacterial activity against Proteus vulgaris MTCC 1771 after 24 hr by paper disk diffusion method
[3] = test system: Candida albicans; experiment: Antifungal activity against Candida albicans MTCC 183 after 48 hr by agar streak dilution method; conditions: MTCC 183, 48 h
[4] = test system: Candida albicans; experiment: Antifungal activity against Candida albicans MTCC 183 after 24 hr by paper disk diffusion method
[5] = test system: Pseudomonas aeruginosa; experiment: Antibacterial activity against Pseudomonas aeruginosa MTCC 741 after 24 hr by paper disk diffusion method
[6] = test system: Salmonella typhi; experiment: Antibacterial activity against Salmonella enterica subsp. enterica serovar Typhi MTCC 733 after 24 hr by agar streak dilution method; conditions: MTCC 733, 24 h
[7] = test system: Staphylococcus aureus; experiment: Antibacterial activity against Staphylococcus aureus MTCC 96 after 24 hr by agar streak dilution method; conditions: MTCC 96, 24 h
[8] = test system: Shigella flexneri; experiment: Antibacterial activity against Shigella flexneri MTCC 1457 after 24 hr by agar streak dilution method; conditions: MTCC 1457, 24 h
[9] = test system: Pseudomonas aeruginosa; experiment: Antibacterial activity against Pseudomonas aeruginosa MTCC 741 after 24 hr by agar streak dilution method; conditions: MTCC 741, 24 h
[10] = test system: Salmonella typhi; experiment: Antibacterial activity against Salmonella enterica subsp. enterica serovar Typhi MTCC 733 after 24 hr by paper disk diffusion method
[11] = test system: Shigella flexneri; experiment: Antibacterial activity against Shigella flexneri MTCC 1457 after 24 hr by paper disk diffusion method
[12] = test system: Aspergillus niger; experiment: Antifungal activity against Aspergillus niger MTCC 282 after 48 hr by agar streak dilution method; conditions: MTCC 282, 48 h
[13] = test system: Klebsiella pneumoniae; experiment: Antibacterial activity against Klebsiella pneumoniae MTCC 109 after 24 hr by agar streak dilution method; conditions: MTCC 109, 24 h
[14] = test system: Escherichia coli; experiment: Antibacterial activity against Escherichia coli MTCC 739 after 24 hr by agar streak dilution method; conditions: MTCC 739, 24 h
[15] = test system: Bacillus cereus; experiment: Antibacterial activity against Bacillus cereus MTCC 619 after 24 hr by paper disk diffusion method
[16] = test system: Proteus vulgaris; experiment: Antibacterial activity against Proteus vulgaris MTCC 1771 after 24 hr by agar streak dilution method; conditions: MTCC 1771, 24 h
[17] = test system: Escherichia coli; experiment: Antibacterial activity against Escherichia coli MTCC 739 after 24 hr by paper disk diffusion method
[18] = test system: Aspergillus niger; experiment: Antifungal activity against Aspergillus niger MTCC 282 after 24 hr by paper disk diffusion method
[19] = test system: Bacillus cereus; experiment: Antibacterial activity against Bacillus cereus MTCC 619 after 24 hr by agar streak dilution method; conditions: MTCC 619, 24 h

CCOC(=O)CNc1nc(Nc2ccc(C#N)cc2)nc(Oc2cc(=O)n(C)c3ccccc23)n1
inhibition zone (IZ) [1]: 6 mm
inhibition zone (IZ) [2]: 15 mm
MIC [3]: > 50 µg/mL
inhibition zone (IZ) [4]: <5 mm
inhibition zone (IZ) [5]: <5 mm
MIC [6]: 50 µg/mL (≈ 106 µM)
MIC [7]: 50 µg/mL (≈ 106 µM)
MIC [8]: 50 µg/mL (≈ 106 µM)
MIC [9]: 50 µg/mL (≈ 106 µM)
inhibition zone (IZ) [10]: 8 mm
inhibition zone (IZ) [11]: 11 mm
MIC [12]: 50 µg/mL (≈ 106 µM)
MIC [13]: 50 µg/mL (≈ 106 µM)
MIC [14]: 50 µg/mL (≈ 106 µM)
inhibition zone (IZ) [15]: 9 mm
MIC [16]: 12.5 µg/mL (≈ 26.5 µM)
inhibition zone (IZ) [17]: 7 mm
inhibition zone (IZ) [18]: 9 mm
MIC [19]: 50 µg/mL (≈ 106 µM)

CNc1nc(Nc2ccc(C#N)cc2)nc(Oc2cc(=O)n(C)c3ccccc23)n1
inhibition zone (IZ) [1]: 11 mm
inhibition zone (IZ) [2]: 8 mm
MIC [3]: > 50 µg/mL
inhibition zone (IZ) [4]: <5 mm
inhibition zone (IZ) [5]: 14 mm
MIC [6]: 50 µg/mL (≈ 125 µM)
MIC [7]: 50 µg/mL (≈ 125 µM)
MIC [8]: 50 µg/mL (≈ 125 µM)
MIC [9]: 6.25 µg/mL (≈ 15.6 µM)
inhibition zone (IZ) [10]: <5 mm
inhibition zone (IZ) [11]: 8 mm
MIC [12]: > 50 µg/mL
MIC [13]: 50 µg/mL (≈ 125 µM)
MIC [14]: 50 µg/mL (≈ 125 µM)
inhibition zone (IZ) [15]: 7 mm
MIC [16]: 50 µg/mL (≈ 125 µM)
inhibition zone (IZ) [17]: <5 mm
inhibition zone (IZ) [18]: <5 mm
MIC [19]: 50 µg/mL (≈ 125 µM)

CCNc1nc(Nc2ccc(C#N)cc2)nc(Oc2cc(=O)n(C)c3ccccc23)n1
inhibition zone (IZ) [1]: 10 mm
inhibition zone (IZ) [2]: <5 mm
MIC [3]: > 50 µg/mL
inhibition zone (IZ) [4]: <5 mm
inhibition zone (IZ) [5]: 12 mm
MIC [6]: 50 µg/mL (≈ 121 µM)
MIC [7]: 50 µg/mL (≈ 121 µM)
MIC [8]: 50 µg/mL (≈ 121 µM)
MIC [9]: 12.5 µg/mL (≈ 30.2 µM)
inhibition zone (IZ) [10]: 9 mm
inhibition zone (IZ) [11]: 7 mm
MIC [12]: > 50 µg/mL
MIC [13]: 50 µg/mL (≈ 121 µM)
MIC [14]: 50 µg/mL (≈ 121 µM)
inhibition zone (IZ) [15]: <5 mm
MIC [16]: 50 µg/mL (≈ 121 µM)
inhibition zone (IZ) [17]: 8 mm
inhibition zone (IZ) [18]: <5 mm
MIC [19]: 50 µg/mL (≈ 121 µM)

CC(C)Nc1nc(Nc2ccc(C#N)cc2)nc(Oc2cc(=O)n(C)c3ccccc23)n1
inhibition zone (IZ) [1]: 8 mm
inhibition zone (IZ) [2]: 8 mm
MIC [3]: 50 µg/mL (≈ 117 µM)
inhibition zone (IZ) [4]: 7 mm
inhibition zone (IZ) [5]: <5 mm
MIC [6]: 50 µg/mL (≈ 117 µM)
MIC [7]: 50 µg/mL (≈ 117 µM)
MIC [8]: 50 µg/mL (≈ 117 µM)
MIC [9]: 50 µg/mL (≈ 117 µM)
inhibition zone (IZ) [10]: 6 mm
inhibition zone (IZ) [11]: 8 mm
MIC [12]: 50 µg/mL (≈ 117 µM)
MIC [13]: 50 µg/mL (≈ 117 µM)
MIC [14]: 50 µg/mL (≈ 117 µM)
inhibition zone (IZ) [15]: 13 mm
MIC [16]: 50 µg/mL (≈ 117 µM)
inhibition zone (IZ) [17]: 9 mm
inhibition zone (IZ) [18]: 8 mm
MIC [19]: 25 µg/mL (≈ 58.5 µM)

Cn1c(=O)cc(Oc2nc(NCC(=O)O)nc(Nc3ccc(C#N)cc3)n2)c2ccccc21
inhibition zone (IZ) [1]: <5 mm
inhibition zone (IZ) [2]: 13 mm
MIC [3]: > 50 µg/mL
inhibition zone (IZ) [4]: <5 mm
inhibition zone (IZ) [5]: 8 mm
MIC [6]: 50 µg/mL (≈ 113 µM)
MIC [7]: 50 µg/mL (≈ 113 µM)
MIC [8]: 50 µg/mL (≈ 113 µM)
MIC [9]: 50 µg/mL (≈ 113 µM)
inhibition zone (IZ) [10]: 8 mm
inhibition zone (IZ) [11]: 9 mm
MIC [12]: 50 µg/mL (≈ 113 µM)
MIC [13]: 50 µg/mL (≈ 113 µM)
MIC [14]: 50 µg/mL (≈ 113 µM)
inhibition zone (IZ) [15]: 7 mm
MIC [16]: 25 µg/mL (≈ 56.4 µM)
inhibition zone (IZ) [17]: <5 mm
inhibition zone (IZ) [18]: 7 mm
MIC [19]: 50 µg/mL (≈ 113 µM)

CN(C)c1nc(Nc2ccc(C#N)cc2)nc(Oc2cc(=O)n(C)c3ccccc23)n1
inhibition zone (IZ) [1]: 12 mm
inhibition zone (IZ) [2]: 9 mm
MIC [3]: > 50 µg/mL
inhibition zone (IZ) [4]: <5 mm
inhibition zone (IZ) [5]: 8 mm
MIC [6]: 50 µg/mL (≈ 121 µM)
MIC [7]: 50 µg/mL (≈ 121 µM)
MIC [8]: 50 µg/mL (≈ 121 µM)
MIC [9]: 50 µg/mL (≈ 121 µM)
inhibition zone (IZ) [10]: 7 mm
inhibition zone (IZ) [11]: <5 mm
MIC [12]: > 50 µg/mL
MIC [13]: 50 µg/mL (≈ 121 µM)
MIC [14]: 50 µg/mL (≈ 121 µM)
inhibition zone (IZ) [15]: 14 mm
MIC [16]: 50 µg/mL (≈ 121 µM)
inhibition zone (IZ) [17]: 10 mm
inhibition zone (IZ) [18]: <5 mm
MIC [19]: 12.5 µg/mL (≈ 30.2 µM)

Cn1c(=O)cc(Oc2nc(NCCCl)nc(Nc3ccc(C#N)cc3)n2)c2ccccc21
inhibition zone (IZ) [1]: 12 mm
inhibition zone (IZ) [2]: 8 mm
MIC [3]: 50 µg/mL (≈ 112 µM)
inhibition zone (IZ) [4]: 9 mm
inhibition zone (IZ) [5]: 7 mm
MIC [6]: 25 µg/mL (≈ 55.8 µM)
MIC [7]: 25 µg/mL (≈ 55.8 µM)
MIC [8]: 50 µg/mL (≈ 112 µM)
MIC [9]: 50 µg/mL (≈ 112 µM)
inhibition zone (IZ) [10]: 13 mm
inhibition zone (IZ) [11]: <5 mm
MIC [12]: 50 µg/mL (≈ 112 µM)
MIC [13]: 50 µg/mL (≈ 112 µM)
MIC [14]: 25 µg/mL (≈ 55.8 µM)
inhibition zone (IZ) [15]: 11 mm
MIC [16]: 50 µg/mL (≈ 112 µM)
inhibition zone (IZ) [17]: 15 mm
inhibition zone (IZ) [18]: 8 mm
MIC [19]: 50 µg/mL (≈ 112 µM)

CCCCNc1nc(Nc2ccc(C#N)cc2)nc(Oc2cc(=O)n(C)c3ccccc23)n1
inhibition zone (IZ) [1]: 12 mm
inhibition zone (IZ) [2]: <5 mm
MIC [3]: 50 µg/mL (≈ 113 µM)
inhibition zone (IZ) [4]: 6 mm
inhibition zone (IZ) [5]: 11 mm
MIC [6]: 50 µg/mL (≈ 113 µM)
MIC [7]: 50 µg/mL (≈ 113 µM)
MIC [8]: 50 µg/mL (≈ 113 µM)
MIC [9]: 25 µg/mL (≈ 56.6 µM)
inhibition zone (IZ) [10]: 6 mm
inhibition zone (IZ) [11]: 7 mm
MIC [12]: > 50 µg/mL
MIC [13]: 50 µg/mL (≈ 113 µM)
MIC [14]: 50 µg/mL (≈ 113 µM)
inhibition zone (IZ) [15]: 8 mm
MIC [16]: 50 µg/mL (≈ 113 µM)
inhibition zone (IZ) [17]: <5 mm
inhibition zone (IZ) [18]: <5 mm
MIC [19]: 50 µg/mL (≈ 113 µM)

Cn1c(=O)cc(Oc2nc(NCCO)nc(Nc3ccc(C#N)cc3)n2)c2ccccc21
inhibition zone (IZ) [1]: <5 mm
inhibition zone (IZ) [2]: 7 mm
MIC [3]: > 50 µg/mL
inhibition zone (IZ) [4]: <5 mm
inhibition zone (IZ) [5]: 9 mm
MIC [6]: 50 µg/mL (≈ 116 µM)
MIC [7]: 50 µg/mL (≈ 116 µM)
MIC [8]: 50 µg/mL (≈ 116 µM)
MIC [9]: 50 µg/mL (≈ 116 µM)
inhibition zone (IZ) [10]: 9 mm
inhibition zone (IZ) [11]: 7 mm
MIC [12]: > 50 µg/mL
MIC [13]: 50 µg/mL (≈ 116 µM)
MIC [14]: 50 µg/mL (≈ 116 µM)
inhibition zone (IZ) [15]: <5 mm
MIC [16]: 50 µg/mL (≈ 116 µM)
inhibition zone (IZ) [17]: <5 mm
inhibition zone (IZ) [18]: <5 mm
MIC [19]: 50 µg/mL (≈ 116 µM)

CCN(CC)c1nc(Nc2ccc(C#N)cc2)nc(Oc2cc(=O)n(C)c3ccccc23)n1
inhibition zone (IZ) [1]: 13 mm
inhibition zone (IZ) [2]: <5 mm
MIC [3]: 50 µg/mL (≈ 113 µM)
inhibition zone (IZ) [4]: 9 mm
inhibition zone (IZ) [5]: 10 mm
MIC [6]: 50 µg/mL (≈ 113 µM)
MIC [7]: 25 µg/mL (≈ 56.6 µM)
MIC [8]: 50 µg/mL (≈ 113 µM)
MIC [9]: 50 µg/mL (≈ 113 µM)
inhibition zone (IZ) [10]: 10 mm
inhibition zone (IZ) [11]: 10 mm
MIC [12]: 50 µg/mL (≈ 113 µM)
MIC [13]: 50 µg/mL (≈ 113 µM)
MIC [14]: 50 µg/mL (≈ 113 µM)
inhibition zone (IZ) [15]: 16 mm
MIC [16]: 50 µg/mL (≈ 113 µM)
inhibition zone (IZ) [17]: 11 mm
inhibition zone (IZ) [18]: 9 mm
MIC [19]: 12.5 µg/mL (≈ 28.3 µM)
